Measurements as given in patent US10798941B2, “Microbiocidal oxadiazole derivatives” (SYNGENTA PARTICIPATIONS AG, priority 2016, dated 2020).

Experiments:
[1] = tested on: Puccinia recondita f. Sp. Tritici; assay: Puccinia recondita f. sp. tritici / wheat / leaf disc preventative (brown rust); assay type: in vivo; conditions: foliar, 168 h, 200 ppm in the applied formulation, wheat leaf segments cv. Kanzler, preventative, inoculated 1 day after application, assessed 7 to 9 days after application, vs untreated, read-out: disease control
Summary of the method: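 Preventative leaf-segment test: spray application of diluted formulated compound on wheat cv. Kanzler, spore inoculation after 1 day. Percent control relative to untreated segments rated 7 to 9 days post-application, with incubation at 19° C, 75% relative humidity, 12 h photoperiod.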

[2] = tested on: Glomerella Lagenarium (Colletotrichum Lagenarium); assay: Glomerella lagenarium (Colletotrichum lagenarium) liquid culture / cucumber / preventative (anthracnose); assay type: cell-based; conditions: Colletotrichum orbiculare; 20 ppm in the applied formulation; liquid culture in PDB, 24° C., inhibition of growth measured photometrically 3 to 4 days after application, vs untreated; read-out: disease control
Summary of the method: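 Conidia from cryogenic storage were mixed into potato dextrose broth. This was added to compound diluted from DMSO into 0.025% Tween20, tested at 20 ppm. Plates were incubated in the dark at 24 °C and 96% relative humidity, and growth was read photometrically after 2–7 days as % activity versus untreated check.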

[3] = tested on: Puccinia recondita f. Sp. Tritici; assay: Puccinia recondita f. sp. tritici / wheat / leaf disc curative (brown rust); assay type: in vivo; conditions: foliar, 144 h, 200 ppm in the applied formulation, wheat leaf segments cv. Kanzler, applied 1 day after inoculation, assessed 6 to 8 days after application, vs untreated, read-out: disease control
Summary of the method: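 Segments of wheat (cultivar Kanzler) sit on agar and are spore-inoculated first; after one day in darkness at 19° C and 75% RH the diluted formulated compound is sprayed on. A 12 h photoperiod follows at the same temperature and humidity before disease is scored against untreated controls.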

SMILES | melting point [°C] | pest or weed control at 200 ppm [1] [%] | inhibition of growth at 20 ppm [2] [%] | pest or weed control at 200 ppm [3] [%]
COC(=O)c1ncn(Cc2ccc(-c3noc(C(F)(F)F)n3)cc2)n1 [Compound 1.37, methyl 1-[[4-[5-(trifluoromethyl)-1,2,4-oxadiazol-3-yl]phenyl]methyl]-1,2,4-triazole-3-carboxylate] | 174 to 177.2 | ≥ 80 | ≥ 80 | –
COc1cc(-c2noc(C(F)(F)F)n2)ccc1Cn1cncn1 [Compound 1.97, 3-[3-methoxy-4-(1,2,4-triazol-1-ylmethyl)phenyl]-5-(trifluoromethyl)-1,2,4-oxadiazole] | 102 to 106 | – | ≥ 80 | ≥ 80
COCCNC(=O)c1cnn(Cc2ccc(-c3noc(C(F)(F)F)n3)cc2)c1 [Compound 1.250, N-(2-methoxyethyl)-1-[[4-[5-(trifluoromethyl)-1,2,4-oxadiazol-3-yl]phenyl]methyl]pyrazole-4-carboxamide] | 132 to 142 | ≥ 80 | ≥ 80 | –
N#Cc1ncn(Cc2ccc(-c3noc(C(F)(F)F)n3)c(F)c2)n1 [Compound 1.255, 1-[[3-fluoro-4-[5-(trifluoromethyl)-1,2,4-oxadiazol-3-yl]phenyl]methyl]-1,2,4-triazole-3-carbonitrile] | 120 to 123 | ≥ 80 | ≥ 80 | ≥ 80
N#Cc1ncn(Cc2ccc(-c3noc(C(F)(F)F)n3)nc2)n1 [Compound 1.257, 1-[[6-[5-(trifluoromethyl)-1,2,4-oxadiazol-3-yl]-3-pyridyl]methyl]-1,2,4-triazole-3-carbonitrile] | 105 to 108 | – | ≥ 80 | –
CC(C)(C)OC(=O)c1cnn(Cc2ccc(-c3noc(C(F)(F)F)n3)cc2)c1 [Compound 1.262, ~{tert}-butyl 1-[[4-[5-(trifluoromethyl)-1,2,4-oxadiazol-3-yl]phenyl]methyl]pyrazole-4-carboxylate] | 81 to 91 | ≥ 80 | ≥ 80 | –
CCOC(=O)c1cnn(Cc2ccc(-c3noc(C(F)(F)F)n3)nc2)c1 [Compound 1.269, ethyl 1-[[6-[5-(trifluoromethyl)-1,2,4-oxadiazol-3-yl]-3-pyridyl]methyl]pyrazole-4-carboxylate] | 88 to 90 | ≥ 80 | ≥ 80 | ≥ 80
O=C(O)c1cn(Cc2ccc(-c3noc(C(F)(F)F)n3)cc2)nn1 [Compound 1.271, 1-[[4-[5-(trifluoromethyl)-1,2,4-oxadiazol-3-yl]phenyl]methyl]triazole-4-carboxylic acid] | 208 to 210 | ≥ 80 | – | ≥ 80
COc1ccc(NC(=O)c2cn(Cc3ccc(-c4noc(C(F)(F)F)n4)cc3)nn2)cc1 [Compound 1.281, N-(4-methoxyphenyl)-1-[[4-[5-(trifluoromethyl)-1,2,4-oxadiazol-3-yl]phenyl]methyl]triazole-4-carboxamide] | 205 to 207 | ≥ 80 | ≥ 80 | ≥ 80
O=C(Nc1ccc(Cl)cc1)c1cn(Cc2ccc(-c3noc(C(F)(F)F)n3)cc2)nn1 [Compound 1.282, N-(4-chlorophenyl)-1-[[4-[5-(trifluoromethyl)-1,2,4-oxadiazol-3-yl]phenyl]methyl]triazole-4-carboxamide] | 233 to 235 | ≥ 80 | – | –
CCCON=Cc1cnn(Cc2ccc(-c3noc(C(F)(F)F)n3)cc2)c1 [Compound 1.287, N-propoxy-1-[1-[[4-[5-(trifluoromethyl)-1,2,4-oxadiazol-3-yl]phenyl]methyl]pyrazol-4-yl]methanimine] | 60 to 95 | ≥ 80 | ≥ 80 | ≥ 80
FC(F)(F)c1nc(-c2ccc(Cn3cc(C=NOCc4ccccc4)cn3)cc2)no1 [Compound 1.289, N-benzyloxy-1-[1-[[4-[5-(trifluoromethyl)-1,2,4-oxadiazol-3-yl]phenyl]methyl]pyrazol-4-yl]methanimine] | 75 to 85 | ≥ 80 | ≥ 80 | –
CNC(=O)c1cnnn1Cc1ccc(-c2noc(C(F)(F)F)n2)cc1 [Compound 1.291, N-methyl-3-[[4-[5-(trifluoromethyl)-1,2,4-oxadiazol-3-yl]phenyl]methyl]triazole-4-carboxamide] | 222 to 224 | – | – | ≥ 80
CS(=O)(=O)c1ncnn1Cc1ccc(-c2noc(C(F)(F)F)n2)cc1 [Compound 1.294, 3-[4-[(5-methylsulfonyl-1,2,4-triazol-1-yl)methyl]phenyl]-5-(trifluoromethyl)-1,2,4-oxadiazole] | 119.2 to 119.8 | ≥ 80 | ≥ 80 | ≥ 80
C[S+]([O-])c1ncnn1Cc1ccc(-c2noc(C(F)(F)F)n2)cc1 (centres unmarked) [Compound 1.295, 3-[4-[(5-methylsulfinyl-1,2,4-triazol-1-yl)methyl]phenyl]-5-(trifluoromethyl)-1,2,4-oxadiazole] | 71.2 to 73.7 | ≥ 80 | ≥ 80 | ≥ 80
CS(=O)(=O)c1ncn(Cc2ccc(-c3noc(C(F)(F)F)n3)cc2)n1 [Compound 1.296, 3-[4-[(3-methylsulfonyl-1,2,4-triazol-1-yl)methyl]phenyl]-5-(trifluoromethyl)-1,2,4-oxadiazole] | 145.4 to 146.4 | ≥ 80 | ≥ 80 | ≥ 80
C[S+]([O-])c1ncn(Cc2ccc(-c3noc(C(F)(F)F)n3)cc2)n1 (centres unmarked) [Compound 1.297, 3-[4-[(3-methylsulfinyl-1,2,4-triazol-1-yl)methyl]phenyl]-5-(trifluoromethyl)-1,2,4-oxadiazole] | 114.4 to 115.2 | ≥ 80 | ≥ 80 | ≥ 80
CSc1ncnn1Cc1ccc(-c2noc(C(F)(F)F)n2)cc1 [Compound 1.298, 3-[4-[(5-methylsulfanyl-1,2,4-triazol-1-yl)methyl]phenyl]-5-(trifluoromethyl)-1,2,4-oxadiazole] | 72 to 73.2 | ≥ 80 | ≥ 80 | ≥ 80
CSc1ncn(Cc2ccc(-c3noc(C(F)(F)F)n3)cc2)n1 [Compound 1.299, 3-[4-[(3-methylsulfanyl-1,2,4-triazol-1-yl)methyl]phenyl]-5-(trifluoromethyl)-1,2,4-oxadiazole] | 88 to 90.4 | ≥ 80 | ≥ 80 | ≥ 80
CCOC(=O)c1cnn(CC(F)c2ccc(-c3noc(C(F)(F)F)n3)cc2)c1 (centres unmarked) [Compound 1.311, ethyl 1-[2-fluoro-2-[4-[5-(trifluoromethyl)-1,2,4-oxadiazol-3-yl]phenyl]ethyl]pyrazole-4-carboxylate] | 145 to 147 | – | – | –
